Results filed as inconclusive are left out.
Test system: BDF1 mice, s.c. Lewis lung carcinoma, T/C %
Experiment: NCI In Vivo Anticancer Drug Screen. Data for tumor model Lewis Lung Carcinoma (subcutaneous) in B6D2F1 (BDF1) mice
Conditions: endpoint: mean tumor weight, schedule: Q01DX011 (ip), vehicle: other, higher = larger tumour
Method in brief: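 Transplanted tumors grown in mice; compound vs vehicle dosing; endpoint survival or tumor size; ratio T/C.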

SMILES: Nc1ccccc1Br
- T/C (dose: 222.0 mg/kg/injection): 114 % of control
- T/C (dose: 333.0 mg/kg/injection): 102 % of control

Reference: PubChem BioAssay AID270 (DTP/NCI, 2004)
